Columns and labels:
MCF7 [1] = test: Antiproliferative activity against human MCF7 cells assessed as incorporation of [methyl-3H]thymidine into cellular DNA in serum free medium in presence of 6.2 ug/mL RNase 1; type: functional, cell-based
MCF7 [2] = test: Antiproliferative activity against human MCF7 cells assessed as incorporation of [methyl-3H]thymidine into cellular DNA in serum free medium in absence of 6.2 ug/mL RNase 1; type: functional, cell-based
[3] = Prodrug stability assessed as 4-hydroxytamoxifen release at 40 uM in pH 7.4 ribonuclease free 0.10 M sodium phosphate buffer containing NaCl and in absence of RNase 1; type: physicochemical; details: pH 7.4, 40 µM
Ribonuclease pancreatic = molecular target: T1, Ribonuclease pancreatic (Homo sapiens, UniProt P07998); test: Prodrug activation assessed as half life for ribonuclease 1 mediated 4-hydroxytamoxifen release in MES-NaOH buffer at pH 6.0 by HPLC analysis
T1 sequence (P07998 whole entry): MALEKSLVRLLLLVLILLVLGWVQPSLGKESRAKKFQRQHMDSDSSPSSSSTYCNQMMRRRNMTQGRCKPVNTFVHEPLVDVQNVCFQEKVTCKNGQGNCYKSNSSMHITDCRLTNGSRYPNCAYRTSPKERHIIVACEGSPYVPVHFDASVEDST

[4] = Prodrug stability assessed as 4-hydroxytamoxifen release at 40 uM in serum free medium in absence of RNase 1; type: ADME
[5] = Prodrug stability assessed as compound degradation at 37 degC after 11 hrs in absence of ribonuclease 1 at pH 6.0 by HPLC analysis; type: physicochemical; details: buffer, pH 6, 11 h

## CCC(=C(c1ccc(O)cc1)c1ccc(OCCN(C)C)cc1)c1ccccc1
MCF7 [1]
  IC50: 2.7 µM
MCF7 [2]
  IC50: 2.7 µM

## CC/C(=C(/c1ccc(OCCN(C)C)cc1)c1ccc(OP(=O)(O)O[C@H]2[C@@H](O)[C@H](n3ccc(=O)[nH]c3=O)O[C@@H]2CO)cc1)c1ccccc1
[3]
  t1/2: 9.4 h
Ribonuclease pancreatic
  t1/2: 4 h
MCF7 [1]
  IC50: 5.2 µM
[4]
  t1/2: 9 h
[5]
  Drug degradation: < 6%
MCF7 [2]
  IC50: 16.7 µM
